Laboratory results published in patent publication US20260285875A1, “INHIBITORS OF PARG” (858 Therapeutics, Inc., priority 2023, published 2026).

Target: T1, cellular PARG (Homo sapiens, UniProt Q86W56)
T1 construct: endogenous in cells; host or cells: HeLa
Assay: Nuclear PAR accumulation assay (immunofluorescence high-content imaging, MMS-treated HeLa cells)
Assay type: cell-based
Details: 1 hour compound then MMS 50 μg/mL for an additional hour
Outline: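 HeLa cells pretreated with compound for 1 h at 37° C, then given 50 μg/mL MMS for another hour. After methanol fixation, PAR was immunostained with DAPI nuclear counterstain; per-nucleus intensity and percent PAR-positive cells were imaged at 20× (≥1,000 cells/well). IC50 from four-parameter logistic fit.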

T1 sequence (Q86W56 whole entry): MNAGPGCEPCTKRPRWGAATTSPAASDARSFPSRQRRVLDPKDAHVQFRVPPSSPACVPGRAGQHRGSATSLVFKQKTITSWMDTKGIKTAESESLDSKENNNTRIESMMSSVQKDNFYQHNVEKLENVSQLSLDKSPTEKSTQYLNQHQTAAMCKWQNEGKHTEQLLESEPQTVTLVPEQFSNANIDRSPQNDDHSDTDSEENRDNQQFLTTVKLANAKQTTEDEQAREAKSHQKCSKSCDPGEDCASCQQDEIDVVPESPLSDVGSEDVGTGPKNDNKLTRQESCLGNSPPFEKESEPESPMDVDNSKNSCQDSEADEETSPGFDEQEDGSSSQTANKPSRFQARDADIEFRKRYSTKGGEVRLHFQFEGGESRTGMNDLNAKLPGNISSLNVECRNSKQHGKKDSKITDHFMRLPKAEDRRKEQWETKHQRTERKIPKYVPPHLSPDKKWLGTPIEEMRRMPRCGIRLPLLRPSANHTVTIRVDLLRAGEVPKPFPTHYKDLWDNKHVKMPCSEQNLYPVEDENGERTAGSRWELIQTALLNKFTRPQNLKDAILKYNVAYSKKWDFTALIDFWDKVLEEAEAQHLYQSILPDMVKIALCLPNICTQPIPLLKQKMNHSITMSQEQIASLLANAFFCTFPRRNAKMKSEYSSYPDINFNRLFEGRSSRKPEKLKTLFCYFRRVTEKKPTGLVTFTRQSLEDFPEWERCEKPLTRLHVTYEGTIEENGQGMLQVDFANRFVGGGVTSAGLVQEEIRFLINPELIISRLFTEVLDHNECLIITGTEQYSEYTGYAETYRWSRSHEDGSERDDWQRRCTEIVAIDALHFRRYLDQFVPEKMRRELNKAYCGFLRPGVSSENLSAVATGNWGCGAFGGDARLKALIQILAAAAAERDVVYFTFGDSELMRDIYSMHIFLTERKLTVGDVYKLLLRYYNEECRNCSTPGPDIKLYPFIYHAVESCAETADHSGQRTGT

Row | Compound | IC50 [µM]
1 | [2H]C([2H])(c1cnn(C)c1)N1C(=O)c2cc(S(=O)(=O)NC3(C)CC3)c(OC)cc2N2C1=N[C@H]1CCC[C@H]12 [Example 213, (7aS,10aR)-2-methoxy-6-((1-methyl-1H-pyrazol-4-yl)methyl-d2)-N-(1-methylcyclopropyl)-5-oxo-6,7a,8,9,10,1Oa-hexahydro-5H-cyclopenta[4,5]imidazo[1,2-a]quinazoline-3-sulfonamide] | 0.1 to 1
2 | [2H]C([2H])(c1cnn(C)c1)N1C(=O)c2cc(S(=O)(=O)NC3(C)CC3)c(N(C)C)cc2N2C1=N[C@H]1CCC[C@H]12 [Example 214, (7aS,10aR)-2-(dimethylamino)-6-((1-methyl-1H-pyrazol-4-yl)methyl-d2)-N-(1-methylcyclopropyl)-5-oxo-6,7a,8,9,10,10a-hexahydro-5H-cyclopenta[4,5]imidazo[1,2-a]quinazoline-3-sulfonamide] | 1 to 10
3 | CN1C(=O)c2cc(S(=O)(=O)NC3(C)CC3)c(F)cc2N2C1=NCC2C#Cc1cnc2cccnn12 (stereo not shown) [Example 215, 8-fluoro-1-(imidazo[1,2-b]pyridazin-3-ylethynyl)-4-methyl-N-(1-methylcyclopropyl)-5-oxo-1,2,4,5-tetrahydroimidazo[1,2-a]quinazoline-7-sulfonamide] | < 0.1
4 | Cc1cc(C#C[C@@H]2CN=C3N(C)C(=O)c4cc(S(=O)(=O)NC5(C)CC5)ccc4N32)ccn1 [Example 216, (R)-4-methyl-N-(1-methylcyclopropyl)-1-((2-methylpyridin-4-yl)ethynyl)-5-oxo-1,2,4,5-tetrahydroimidazo[1,2-a]quinazoline-7-sulfonamide] | < 0.1
5 | Cn1cc(CN2C(=O)c3cc(S(=O)(=O)NC4(C)CC4)ccc3N3C2=NC[C@H]3C#Cc2c(F)cnn2C)cn1 [Example 217, (R)-1-((4-fluoro-1-methyl-1H-pyrazol-5-yl)ethynyl)-4-((1-methyl-1H-pyrazol-4-yl)methyl)-N-(1-methylcyclopropyl)-5-oxo-1,2,4,5-tetrahydroimidazo[1,2-a]quinazoline-7-sulfonamide] | < 0.1
6 | Cc1nn(C)cc1C#C[C@@H]1CN=C2N(Cc3cnn(C)c3)C(=O)c3cc(S(=O)(=O)NC4(C)CC4)ccc3N21 [Example 218, (R)-1-((1,3-dimethyl-1H-pyrazol-4-yl)ethynyl)-4-((1-methyl-1H-pyrazol-4-yl)methyl)-N-(1-methylcyclopropyl)-5-oxo-1,2,4,5-tetrahydroimidazo[1,2-a]quinazoline-7-sulfonamide] | < 0.1
7 | C[C@@H]1CON=C2N(Cc3cnn(C)c3)C(=O)c3cc(S(=O)(=O)NC4(C)CC4)ccc3N21 [Example 219, (R)-1-methyl-5-((1-methyl-1H-pyrazol-4-yl)methyl)-N-(1-methylcyclopropyl)-6-oxo-1,2,5,6-tetrahydro-[1,2,4]oxadiazino[4,3-a]quinazoline-8-sulfonamide] | < 0.1
8 | C[C@H]1CON=C2N(Cc3cnn(C)c3)C(=O)c3cc(S(=O)(=O)NC4(C)CC4)ccc3N21 [Example 220, (S)-1-methyl-5-((1-methyl-1H-pyrazol-4-yl)methyl)-N-(1-methylcyclopropyl)-6-oxo-1,2,5,6-tetrahydro-[1,2,4]oxadiazino[4,3-a]quinazoline-8-sulfonamide] | 0.1 to 1
9 | Cn1cc(CN2C(=O)c3cc(S(=O)(=O)NC4(C)CC4)ccc3N3C2=NC[C@H]3C#Cc2cnc3cccnn23)cn1 [Example 221, (R)-1-(imidazo[1,2-b]pyridazin-3-ylethynyl)-4-((1-methyl-1H-pyrazol-4-yl)methyl)-N-(1-methylcyclopropyl)-5-oxo-1,2,4,5-tetrahydroimidazo[1,2-a]quinazoline-7-sulfonamide] | < 0.1
10 | [2H]C([2H])(c1cnn(C)c1)N1C(=O)c2cc(S(=O)(=O)NC3(C)CC3)c(NC)cc2N2C1=N[C@H]1CCC[C@H]12 [Example 222, (7aS,10aR)-6-((1-methyl-1H-pyrazol-4-yl)methyl-d2)-2-(methylamino)-N-(1-methylcyclopropyl)-5-oxo-6,7a,8,9,10,10a-hexahydro-5H-cyclopenta[4,5]imidazo[1,2-a]quinazoline-3-sulfonamide] | < 0.1
11 | C[C@@H]1CN=C2N(Cc3cccnc3C#N)C(=O)c3cc(S(=O)(=O)NC4(C)CC4)c(F)cc3N21 [Example 223, (R)-4-((2-cyanopyridin-3-yl)methyl)-8-fluoro-1-methyl-N-(1-methylcyclopropyl)-5-oxo-1,2,4,5-tetrahydroimidazo[1,2-a]quinazoline-7-sulfonamide] | 0.1 to 1
12 | CN1C(=O)c2cc(S(=O)(=O)NC3(C)CC3)ccc2N2C1=NCC2C#Cc1ccnc(F)c1 (stereo not shown) [Example 224, 1-((2-fluoropyridin-4-yl)ethynyl)-4-methyl-N-(1-methylcyclopropyl)-5-oxo-1,2,4,5-tetrahydroimidazo[1,2-a]quinazoline-7-sulfonamide] | < 0.1
13 | Cc1cccc(C#CC2CN=C3N(C)C(=O)c4cc(S(=O)(=O)NC5(C)CC5)ccc4N32)n1 (stereo not shown) [Example 225, 4-methyl-N-(1-methylcyclopropyl)-1-((6-methylpyridin-2-yl)ethynyl)-5-oxo-1,2,4,5-tetrahydroimidazo[1,2-a]quinazoline-7-sulfonamide] | < 0.1
14 | CN1C(=O)c2cc(S(=O)(=O)NC3(C)CC3)ccc2N2C1=NCC2C#Cc1ccnc(C(F)(F)F)c1 (stereo not shown) [Example 226, 4-methyl-N-(1-methylcyclopropyl)-5-oxo-1-((2-(trifluoromethyl)pyridin-4-yl)ethynyl)-1,2,4,5-tetrahydroimidazo[1,2-a]quinazoline-7-sulfonamide] | 0.1 to 1
15 | COc1cc(C#CC2CN=C3N(C)C(=O)c4cc(S(=O)(=O)NC5(C)CC5)ccc4N32)ccn1 (stereo not shown) [Example 227, 1-((2-methoxypyridin-4-yl)ethynyl)-4-methyl-N-(1-methylcyclopropyl)-5-oxo-1,2,4,5-tetrahydroimidazo[1,2-a]quinazoline-7-sulfonamide] | < 0.1
16 | CCN1C(=O)c2cc(S(=O)(=O)NC3(C)CC3)ccc2N2C1=NC[C@H]2C#Cc1cc(C2CC2)nn1C [Example 228, (R)-1-((3-cyclopropyl-1-methyl-1H-pyrazol-5-yl)ethynyl)-4-ethyl-N-(1-methylcyclopropyl)-5-oxo-1,2,4,5-tetrahydroimidazo[1,2-a]quinazoline-7-sulfonamide] | < 0.1
17 | CN1CCN(C2(C#C[C@@H]3CN=C4N(C)C(=O)c5cc(S(=O)(=O)NC6(C)CC6)ccc5N43)CC2)CC1 [Example 229, (R)-4-methyl-N-(1-methylcyclopropyl)-1-((1-(4-methylpiperazin-1-yl)cyclopropyl)ethynyl)-5-oxo-1,2,4,5-tetrahydroimidazo[1,2-a]quinazoline-7-sulfonamide] | 0.1 to 1
18 | C[C@@H]1CN=C2N(Cc3cn(C)nc3C3CC3)C(=O)c3cc(S(=O)(=O)NC4(C)CC4)ccc3N21 [Example 230, (R)-4-((3-cyclopropyl-1-methyl-1H-pyrazol-4-yl)methyl)-1-methyl-N-(1-methylcyclopropyl)-5-oxo-1,2,4,5-tetrahydroimidazo[1,2-a]quinazoline-7-sulfonamide] | < 0.1
19 | [2H]C([2H])(c1cnn(C)c1)N1C(=O)c2cc(S(=O)(=O)NC3(C)CC3)ccc2N2C1=NC[C@H]2C#Cc1cc(C)nn1C [Example 231, (R)-1-((1,3-dimethyl-1H-pyrazol-5-yl)ethynyl)-4-((1-methyl-1H-pyrazol-4-yl)methyl-d2)-N-(1-methylcyclopropyl)-5-oxo-1,2,4,5-tetrahydroimidazo[1,2-a]quinazoline-7-sulfonamide] | < 0.1
20 | [2H]C([2H])(c1cnn(C)c1)N1C(=O)c2cc(S(=O)(=O)NC3(C)CC3)ccc2N2C1=NC[C@H]2C#Cc1cn(C)nc1C [Example 232, (R)-1-((1,3-dimethyl-1H-pyrazol-4-yl)ethynyl)-4-((1-methyl-1H-pyrazol-4-yl)methyl-d2)-N-(1-methylcyclopropyl)-5-oxo-1,2,4,5-tetrahydroimidazo[1,2-a]quinazoline-7-sulfonamide] | < 0.1
21 | C[C@@H]1CN=C2N(Cc3ccc(C#N)nc3)C(=O)c3cc(S(=O)(=O)NC4(C)CC4)ccc3N21 [Example 233, (R)-4-((6-cyanopyridin-3-yl)methyl)-1-methyl-N-(1-methylcyclopropyl)-5-oxo-1,2,4,5-tetrahydroimidazo[1,2-a]quinazoline-7-sulfonamide] | < 0.1
22 | [2H]C([2H])(c1cnn(C)c1)N1C(=O)c2cc(S(=O)(=O)NC3(C)CC3)c(N)cc2N2C1=N[C@H]1CCC[C@H]12 [Example 234, (7aS,10aR)-2-amino-6-((1-methyl-1H-pyrazol-4-yl)methyl-d2)-N-(1-methylcyclopropyl)-5-oxo-6,7a,8,9,10,10a-hexahydro-5H-cyclopenta[4,5]imidazo[1,2-a]quinazoline-3-sulfonamide] | < 0.1
23 | C[C@@H]1C[C@H](C)N2C(=N1)N(Cc1cnn(C)c1)C(=O)c1cc(S(=O)(=O)NC3(C)CC3)ccc12 [Example 235, (1S,3R)-1,3-dimethyl-5-((1-methyl-1H-pyrazol-4-yl)methyl)-N-(1-methylcyclopropyl)-6-oxo-2,3,5,6-tetrahydro-1H-pyrimido[1,2-a]quinazoline-8-sulfonamide] | 0.1 to 1
24 | C[C@@H]1C[C@@H](C)N2C(=N1)N(Cc1cnn(C)c1)C(=O)c1cc(S(=O)(=O)NC3(C)CC3)ccc12 [Example 236, (1R,3R)-1,3-dimethyl-5-((1-methyl-1H-pyrazol-4-yl)methyl)-N-(1-methylcyclopropyl)-6-oxo-2,3,5,6-tetrahydro-1H-pyrimido[1,2-a]quinazoline-8-sulfonamide] | < 0.1
25 | [2H]C([2H])(c1cnn(C)c1)N1C(=O)c2cc(S(=O)(=O)NC3(CO)CC3)ccc2N2C1=NC[C@H]2C [Example 237, (R)-N-(1-(hydroxymethyl)cyclopropyl)-1-methyl-4-((1-methyl-1H-pyrazol-4-yl)methyl-d2)-5-oxo-1,2,4,5-tetrahydroimidazo[1,2-a]quinazoline-7-sulfonamide] | 1 to 10
